Laboratory results published in patent US20240325366A1, “SELECTIVE CDK9 INHIBITOR FOR THE TREATMENT OF A RAS MUTANT CANCER” (VINCERX PHARMA, INC., priority 2021, published 2024).
Where two headings read alike, the source gives them in different places.

Legend:
Type in all cases: cell-based
[1] = tested on: KRAS mutant colorectal and lung cancer cell lines; test: in vitro cytotoxicity, MTT assay, summary; conditions: multiple KRAS mutant colorectal and lung cancer cell lines
Protocol: (§1) Cultivation of cells was performed according to standard procedures with the media recommended by the provider. The cells, in a total volume of 100 μL, were seeded in a 96-well plate with a white bottom (#3610). After a 24h incubation period at 37° C. and 5% CO2 the medium was exchanged by adding 90 μL fresh medium. The treatment started by adding the test compound in 10 μL of culture medium to the cells in triplicates. Concentrations ranging from 10^−6 M to 10^−13 M were chosen. The proliferation was detected using the MTT assay (ATCC). At the end of the incubation period the MTT reagent was added to all samples for 4h. Lysis of the cells followed by addition of the detergent was done overnight. The formed dye was detected at 570 nm. The proliferation of cells was defined as the 100% value.

[2] = tested on: SW480; test: in vitro cytotoxicity, MTT assay; conditions: Homo sapiens; SW480, Colorectal, KRAS p.G12V
Protocol: as §1

[3] = tested on: SW620; test: in vitro cytotoxicity, MTT assay; conditions: Homo sapiens, SW-620; SW620, Colorectal, KRAS p.G12V
Protocol: as §1

[4] = tested on: HCT8; test: in vitro cytotoxicity, MTT assay; conditions: Homo sapiens, HCT-8; HCT8, Colorectal, KRAS WT
Protocol: as §1

[5] = tested on: HCT116; test: in vitro cytotoxicity, MTT assay; conditions: Homo sapiens, HCT-116; HCT116, Colorectal, KRAS p.G13D
Protocol: as §1

[6] = tested on: SW837; test: in vitro cytotoxicity, MTT assay; conditions: Homo sapiens; SW837, Colorectal, KRAS pG12C
Protocol: as §1

[7] = tested on: A549; test: in vitro cytotoxicity, MTT assay; conditions: Homo sapiens; A549, Lung, KRAS p.G12S
Protocol: as §1

[8] = tested on: COLO205; test: in vitro cytotoxicity, MTT assay; conditions: Homo sapiens, COLO 205; COLO205, Colorectal, KRAS WT
Protocol: as §1

[9] = tested on: HCT15; test: in vitro cytotoxicity, MTT assay; conditions: Homo sapiens, HCT-15; HCT15, Colorectal, KRAS p.G13D
Protocol: as §1

[10] = tested on: NCI-H460; test: in vitro cytotoxicity, MTT assay; conditions: Homo sapiens; NCI-H460, Lung, KRAS p.Q61H
Protocol: as §1

[11] = tested on: HT-29; test: in vitro cytotoxicity, MTT assay; conditions: Homo sapiens; HT-29, Colorectal, KRAS WT
Protocol: as §1

[12] = tested on: MIAPaCa2; test: in vitro cytotoxicity, MTT assay; conditions: Homo sapiens, MIA PaCa-2; MIAPaCa2, Pancreatic, KRAS pG12C
Protocol: as §1

[13] = tested on: LCLC-97TM1; test: antiproliferative activity (OmniScreen); conditions: Homo sapiens; LCLC-97TM1, Lung, 72 hours; read-out: Absolute IC50
Source text: (§2) To determine associations of genomic alterations with compound 1′ sensitivity, 458 were mapped to a cell line present in DepMap (21Q3). Of the 458 cell lines mapped, there were 440 with available mutation data in DepMap. Cell line mutation and copy number data were accessed and for mutations, the data were filtered to include variants with a “damaging” or “other non-conserving” annotation only, in order to select variants which are more likely to be functionally important. The top quartile of cell lines based on their compound 1′IC50 values were defined as groups for comparison with the bottom quartile.

[14] = tested on: DV-90; test: antiproliferative activity (OmniScreen); conditions: Homo sapiens; DV-90, Lung, 72 hours; read-out: Absolute IC50
Source text: as §2

[15] = tested on: NCI-H1944; test: antiproliferative activity (OmniScreen); conditions: Homo sapiens; NCI-H1944, Lung, 72 hours; read-out: Absolute IC50
Source text: as §2

[16] = tested on: SU-DHL-10; test: antiproliferative activity (OmniScreen); conditions: Homo sapiens, SU-DHL10; SU-DHL-10, Lymphoma, 72 hours; read-out: Absolute IC50
Source text: as §2

[17] = tested on: SU.86.86; test: antiproliferative activity (OmniScreen); conditions: Homo sapiens; SU.86.86, Pancreas, 72 hours; read-out: Absolute IC50
Source text: as §2

[18] = tested on: 143B; test: antiproliferative activity (OmniScreen); conditions: Homo sapiens, Bone, 72 hours, read-out: Absolute IC50
Source text: as §2

[19] = tested on: MOLP8; test: antiproliferative activity (OmniScreen); conditions: Homo sapiens, MOLP-8; MOLP8, Blood/Myeloma, 72 hours; read-out: Absolute IC50
Source text: as §2

[20] = tested on: Calu-6; test: antiproliferative activity (OmniScreen); conditions: Homo sapiens; Calu-6, Lung, 72 hours; read-out: Absolute IC50
Source text: as §2

[21] = tested on: NCI-H2122; test: antiproliferative activity (OmniScreen); conditions: Homo sapiens; NCI-H2122, Lung, 72 hours; read-out: Absolute IC50
Source text: as §2

[22] = tested on: HCC44; test: antiproliferative activity (OmniScreen); conditions: Homo sapiens; HCC44, Lung, 72 hours; read-out: Absolute IC50
Source text: as §2

[23] = tested on: UM-UC-3; test: antiproliferative activity (OmniScreen); conditions: Homo sapiens, UMUC3; UM-UC-3, Bladder, 72 hours; read-out: Absolute IC50
Source text: as §2

[24] = tested on: CoC1/DDP; test: antiproliferative activity (OmniScreen); conditions: Ovary, 72 hours, read-out: Absolute IC50
Source text: as §2

[25] = tested on: HEC-1-B; test: antiproliferative activity (OmniScreen); conditions: Homo sapiens, Uterus, 72 hours, read-out: Absolute IC50
Source text: as §2

[26] = tested on: Panc 05.04; test: antiproliferative activity (OmniScreen); conditions: Panc 05.04, Pancreas, 72 hours; read-out: Absolute IC50
Source text: as §2

[27] = tested on: LS513; test: antiproliferative activity (OmniScreen); conditions: Homo sapiens, LS-513; LS513, Large intestine/Colorectum, 72 hours; read-out: Absolute IC50
Source text: as §2

[28] = tested on: RBE; test: antiproliferative activity (OmniScreen); conditions: Liver/Bile duct, 72 hours, read-out: Absolute IC50
Source text: as §2

[29] = tested on: NCI-H358; test: antiproliferative activity (OmniScreen); conditions: Homo sapiens; NCI-H358, Lung, 72 hours; read-out: Absolute IC50
Source text: as §2

[30] = tested on: panel of 500 tumor cell lines; test: antiproliferative activity, panel of 500 tumor cell lines (OmniScreen)
Source text: as §2

SMILES: COc1cc(F)ccc1-c1cc(Nc2cc(CS(C)(=N)=O)ccn2)ncc1F (single isomer, unassigned; (+)) [Compound 1′, (+)5-fluoro-4-(4-fluoro-2-methoxyphenyl)-N-{4-[(S-methylsulfonimidoyl)methyl]pyridin-2-yl}pyridin-2-amine]
- activity against KRAS mutant cancer cell lines [1]: active
- IC50 [2]: 143 nM
- IC50 [3]: > 500 nM
- IC50 [4]: 83 nM
- IC50 [5]: 46 nM
- IC50 [6]: 620 nM
- IC50 [7]: 98 nM
- IC50 [8]: 70 nM
- IC50 [9]: 33.5 nM
- IC50 [10]: 75 nM
- IC50 [11]: 83 nM
- IC50 [12]: 128 nM
- IC50 [13]: 46 nM
- IC50 [14]: 90 nM
- IC50 [15]: 75 nM
- IC50 [16]: 74 nM
- IC50 [17]: 82 nM
- IC50 [18]: 73 nM
- IC50 [19]: 80 nM
- IC50 [20]: 39 nM
- IC50 [21]: 70 nM
- IC50 [22]: 90 nM
- IC50 [23]: 67 nM
- IC50 [24]: 72 nM
- IC50 [25]: 67 nM
- IC50 [26]: 38 nM
- IC50 [27]: 51 nM
- IC50 [28]: 72 nM
- IC50 [29]: 41 nM
- IC50 ([30]; N=110 cell lines with mutation data in DepMap, read-out: IC50 bottom quartile (most sensitive cell lines)): ≤ 90.5 nM
- IC50 ([30]; N=130 cell lines with mutation data in DepMap, read-out: IC50 top quartile (least sensitive cell lines)): ≥ 152 nM
- IC50 ([30]; panel of 500 tumor cell lines, 72 hours of treatment, read-out: IC50 range, lower end): 28 nM
- IC50 ([30]; panel of 500 tumor cell lines, 72 hours of treatment, read-out: IC50 range, upper end): 2100 nM
- IC50 ([30]; panel of 500 tumor cell lines, 72 hours of treatment, read-out: mean IC50): 113 nM
